These are literature values, as cited in patent US20250143905A1, “TOPICAL TREATMENT FOR ANORECTAL DISORDERS WITH AND WITHOUT SEAT CUSHION” (priority 2019, published 2025).

The subject of this data set is PPAR-γ. As to conditions: septic rats; pretreatment with curcumin for 3 days at 0.24 μmol/kg body weight; liver.

On to `COc1cc(/C=C/C(=O)CC(=O)/C=C/c2ccc(O)c(OC)c2)ccc1O` [curcumin], for which the “increase in PPAR-γ mRNA levels” value is recorded as 45% and the “increase in PPAR-γ protein levels” value is 65%.
